PubChem BioAssay AID330 (DTP/NCI, 2004)
Several values for one entry are separate records, joined by “and”; a condition that tells them apart may be missing. Equal entries are not always repeated. Inconclusive results and toxic doses are left out.

Test system: P388 leukemia ip, CD2F1 mice, survival T/C
Test: NCI In Vivo Anticancer Drug Screen. Data for tumor model P388 Leukemia (intraperitoneal) in CD2F1 (CDF1) mice
Details: endpoint: median survival time, higher = longer survival
How it was run: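 Mice carrying the transplanted tumor received test compound or vehicle. Survival was recorded in each group, and the value is the treated-group measurement divided by that of the vehicle-treated control group.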

[1] = dose: 100.0 mg/kg/injection, schedule: Q04DX003 (ip), vehicle: saline with Tween-80
[2] = dose: 400.0 mg/kg/injection, schedule: Q04DX003 (ip), vehicle: saline with Tween-80
[3] = dose: 60.0 mg/kg/injection, schedule: Q01DX005 (ip), vehicle: saline with Tween-80
[4] = dose: 120.0 mg/kg/injection, schedule: Q01DX005 (ip), vehicle: saline with Tween-80
[5] = dose: 50.0 mg/kg/injection, schedule: Q01DX005 (ip), vehicle: Klucel (hydroxypropylcellulose) (HPC)
[6] = dose: 100.0 mg/kg/injection, schedule: Q01DX005 (ip), vehicle: Klucel (hydroxypropylcellulose) (HPC)
[7] = dose: 100.0 mg/kg/injection, schedule: Q01DX009 (ip), vehicle: saline with Tween-80
[8] = dose: 200.0 mg/kg/injection, schedule: Q01DX009 (ip), vehicle: saline with Tween-80
[9] = dose: 50.0 mg/kg/injection, schedule: Q01DX009 (ip), vehicle: saline with Tween-80
[10] = dose: 50.0 mg/kg/injection, schedule: Q01DX009 (ip), vehicle: Klucel (hydroxypropylcellulose) (HPC)
[11] = dose: 100.0 mg/kg/injection, schedule: Q01DX009 (ip), vehicle: Klucel (hydroxypropylcellulose) (HPC)
[12] = dose: 200.0 mg/kg/injection, schedule: Q01DX009 (ip), vehicle: Klucel (hydroxypropylcellulose) (HPC)
[13] = dose: 50.0 mg/kg/injection, schedule: Q01DX009 (ip), vehicle: saline
[14] = dose: 100.0 mg/kg/injection, schedule: Q01DX009 (ip), vehicle: saline
[15] = dose: 200.0 mg/kg/injection, schedule: Q01DX009 (ip), vehicle: saline
[16] = dose: 100.0 mg/kg/injection, schedule: Q01DX001 (ip), vehicle: saline with Tween-80
[17] = dose: 200.0 mg/kg/injection, schedule: Q01DX001 (ip), vehicle: saline with Tween-80
[18] = dose: 400.0 mg/kg/injection, schedule: Q01DX001 (ip), vehicle: saline with Tween-80

CCCc1nc2ccccc2c(=O)n1/N=C/c1ccsc1
T/C [1]: 100 % of control
T/C (dose: 200.0 mg/kg/injection, schedule: Q04DX003 (ip), vehicle: saline with Tween-80): 90 % of control
T/C [2]: 90 % of control

COc1ccc2c(NCCCCCCCCNc3c4ccc(OC)cc4nc4cc([N+](=O)[O-])ccc34)c3ccc([N+](=O)[O-])cc3nc2c1
T/C (dose: 0.63 mg/kg/injection, schedule: Q01DX009 (ip), vehicle: other): 88 % of control
T/C (dose: 1.25 mg/kg/injection, schedule: Q01DX009 (ip), vehicle: other): 88 % of control
T/C (dose: 2.5 mg/kg/injection, schedule: Q01DX009 (ip), vehicle: other): 119 % of control
T/C (dose: 5.0 mg/kg/injection, schedule: Q01DX009 (ip), vehicle: other): 120 % of control
T/C (dose: 10.0 mg/kg/injection, schedule: Q01DX009 (ip), vehicle: other): 121 % of control
T/C (dose: 20.0 mg/kg/injection, schedule: Q01DX009 (ip), vehicle: other): 120 % of control

CC1=C(C#N)C(=O)OC1(C)C(CC(=O)c1ccccc1)c1ccccc1 (stereo unspecified)
T/C [3]: 92 % of control
T/C [4]: 87 % of control
T/C (dose: 240.0 mg/kg/injection, schedule: Q01DX005 (ip), vehicle: saline with Tween-80): 91 % of control

CC(=O)Nc1cc(N2CCCCC2)c(N)c2c1C(=O)c1ccccc1C2=O
T/C [5]: 102 % of control
T/C [6]: 97 % of control
T/C (dose: 200.0 mg/kg/injection, schedule: Q01DX005 (ip), vehicle: Klucel (hydroxypropylcellulose) (HPC)): 98 % of control

O=C(Nc1ccc(C2=NCCN2)cc1)c1ccc(C(=O)Nc2ccc(C3=NCCN3)cc2)c(F)c1
T/C (dose: 12.5 mg/kg/injection, schedule: Q04DX003 (ip), vehicle: saline with Tween-80): 109 % of control
T/C (dose: 25.0 mg/kg/injection, schedule: Q04DX003 (ip), vehicle: saline with Tween-80): 122 % of control
T/C [7]: 181 % of control
T/C [8]: 250 % of control
T/C (dose: 264.0 mg/kg/injection, schedule: Q04DX003 (ip), vehicle: saline with Tween-80): 200 % of control
T/C (dose: 400.0 mg/kg/injection, schedule: Q01DX009 (ip), vehicle: saline with Tween-80): 272 % of control
T/C [2]: 245 % of control
T/C (dose: 600.0 mg/kg/injection, schedule: Q04DX003 (ip), vehicle: saline with Tween-80): 259 % of control

Cc1cc(N(CCCl)CCCl)ccc1N=Nc1cccc2ccccc12
T/C [9]: 105 % of control
T/C [7]: 115 % of control
T/C [8]: 123 % of control

Nc1nc(N)n(N)c(=S)n1
T/C (dose: 50.0 mg/kg/injection, schedule: Q04DX003 (ip), vehicle: saline with Tween-80): 96 % of control
T/C [1]: 106 % of control

Clc1ccc(CN2COc3c(ccc4ccccc34)C2)cc1
T/C (dose: 100.0 mg/kg/injection, schedule: Q04DX003 (ip), vehicle: Klucel (hydroxypropylcellulose) (HPC)): 103 % of control
T/C (dose: 200.0 mg/kg/injection, schedule: Q04DX003 (ip), vehicle: Klucel (hydroxypropylcellulose) (HPC)): 94 % of control
T/C (dose: 400.0 mg/kg/injection, schedule: Q04DX003 (ip), vehicle: Klucel (hydroxypropylcellulose) (HPC)): 94 % of control

Clc1ccc(OCC(COc2ccc(Cl)cc2)(COc2ccc(Cl)cc2)COc2ccc(Cl)cc2)cc1
T/C (dose: 7.5 mg/kg/injection, schedule: Q01DX009 (ip), vehicle: saline with Tween-80): 99 % of control
T/C (dose: 15.0 mg/kg/injection, schedule: Q01DX009 (ip), vehicle: saline with Tween-80): 104 % of control
T/C (dose: 30.0 mg/kg/injection, schedule: Q01DX009 (ip), vehicle: saline with Tween-80): 95 % of control

COc1cc2nc3cc([N+](=O)[O-])ccc3c(Cl)c2cc1OC
T/C (dose: 50.0 mg/kg/injection, schedule: Q01DX005 (ip), vehicle: saline with Tween-80): 99 % of control
T/C (dose: 100.0 mg/kg/injection, schedule: Q01DX005 (ip), vehicle: saline with Tween-80): 101 % of control
T/C (dose: 200.0 mg/kg/injection, schedule: Q01DX005 (ip), vehicle: saline with Tween-80): 89 % of control

Cc1ccc(C)c(NC(=O)Nc2ccc(C(=O)O)cc2)c1
T/C [10]: 105 % of control
T/C [11]: 105 % of control
T/C [12]: 102 % of control

COc1ccc(CCN2C(=O)C(=O)N(c3cccc4c(N5C(=O)C(=O)N(CCc6ccc(OC)c(OC)c6)C5=O)cccc34)C2=O)cc1OC
T/C [10]: 95 % of control
T/C [11]: 93 % of control
T/C [12]: 96 % of control

CC12CCC3(C)OCC(CO)(CO1)N23 (stereo unspecified)
T/C [9]: 91 % of control
T/C [7]: 90 % of control
T/C [8]: 91 % of control

[Cl][Mn][Cl].[NH-]NP(=S)(N[NH-])Oc1ccccc1.[NH-]NP(=S)(N[NH-])Oc1ccccc1
T/C (dose: 12.5 mg/kg/injection, schedule: Q01DX005 (ip), vehicle: saline): 99 % of control
T/C (dose: 25.0 mg/kg/injection, schedule: Q01DX005 (ip), vehicle: saline): 100 % of control
T/C (dose: 50.0 mg/kg/injection, schedule: Q01DX005 (ip), vehicle: saline): 108 % of control

Cc1cc(C)c(S(=O)(=O)Sc2nnnn2-c2ccccc2)c(C)c1
T/C [10]: 100 % of control
T/C [11]: 105 % of control
T/C [12]: 95 % of control

COCCC/C=C\N1CCOCC1
T/C [13]: 99 % of control
T/C [14]: 101 % of control
T/C [15]: 95 % of control

S=C([S-])N1CC[n+]2c(-c3ccccc3)csc21
T/C [13]: 101 % of control
T/C [14]: 100 % of control
T/C [15]: 91 % of control

COc1ccc(/C=C/C(=O)c2c(N)n(C)c(=O)n(C)c2=O)cc1
T/C [5]: 91 % of control
T/C [6]: 88 % of control

COc1cc2c(c(OC)c1OC)-c1ccc(N)c(=O)cc1[C@@H](NC(C)=O)CC2
T/C (dose: 0.5 mg/kg/injection, schedule: Q01DX010 (ip), vehicle: saline): 109 % of control
T/C (dose: 1.0 mg/kg/injection, schedule: Q01DX010 (ip), vehicle: saline): 118 % of control
T/C (dose: 3.12 mg/kg/injection, schedule: Q01DX009 (ip), vehicle: Klucel (hydroxypropylcellulose) (HPC)): 86 % of control
T/C (dose: 6.25 mg/kg/injection, schedule: Q01DX009 (ip), vehicle: Klucel (hydroxypropylcellulose) (HPC)): 108 % of control

COc1cc(C(Nc2ccccn2)c2cc3c(cc2O)OCO3)cc(OC)c1O (stereo unspecified)
T/C (dose: 60.0 mg/kg/injection, schedule: Q01DX005 (ip), vehicle: Klucel (hydroxypropylcellulose) (HPC)): 91 % of control
T/C (dose: 120.0 mg/kg/injection, schedule: Q01DX005 (ip), vehicle: Klucel (hydroxypropylcellulose) (HPC)): 91 % of control
T/C (dose: 240.0 mg/kg/injection, schedule: Q01DX005 (ip), vehicle: Klucel (hydroxypropylcellulose) (HPC)): 94 % of control

COc1cc(O)c(/C=N/Nc2ccc3ccccc3n2)c(OC)c1
T/C [16]: 91 % of control
T/C [17]: 104 % of control
T/C [18]: 89 % of control

C=CCn1c(SC)nc2c(c1=O)CCCC2
T/C [3]: 108 % of control
T/C [4]: 97 % of control

COc1cc(-c2nc(=S)[nH][nH]2)cc(OC)c1OC
T/C [16]: 89 % of control
T/C [17]: 89 % of control
T/C [18]: 96 % of control

N#Cc1c(N)[nH]c2ccc(Sc3ccccc3)cc12
T/C (dose: 7.5 mg/kg/injection, schedule: Q01DX005 (ip), vehicle: saline with Tween-80): 97 % of control
T/C (dose: 15.0 mg/kg/injection, schedule: Q01DX005 (ip), vehicle: saline with Tween-80): 99 % of control
T/C (dose: 30.0 mg/kg/injection, schedule: Q01DX005 (ip), vehicle: saline with Tween-80): 104 % of control

CC(C)C1OC(=O)/C=C/C=C/C=C/C=C/C=C/CC(O)C(C)C(O)CC(O)CC(O)CC(O)CC(O)CC(O)CC(O)/C=C/C1C (stereo unspecified)
T/C (dose: 1.56 mg/kg/injection, schedule: Q01DX009 (ip), vehicle: saline): 100 % of control
T/C (dose: 3.12 mg/kg/injection, schedule: Q01DX009 (ip), vehicle: saline): 96 % of control
T/C (dose: 6.25 mg/kg/injection, schedule: Q01DX009 (ip), vehicle: saline): 102 % of control and 92 % of control

CC(=O)N(C)N(Cc1ccc(C#N)cc1)C(C)=O
T/C (dose: 25.0 mg/kg/injection, schedule: Q01DX009 (ip), vehicle: Klucel (hydroxypropylcellulose) (HPC)): 101 % of control
T/C [10]: 98 % of control
T/C [11]: 99 % of control
T/C [12]: 108 % of control
T/C (dose: 400.0 mg/kg/injection, schedule: Q01DX009 (ip), vehicle: Klucel (hydroxypropylcellulose) (HPC)): 98 % of control
